Patent US20120046331A1, “Antifungal Agents and Uses Thereof” (priority 2010, published 2012)
In brackets after ≈: the same amount, converted by molar mass. Like-named read-outs stand apart in the source and are kept apart here.

Key:
Test in all cases: MIC testing, modified CLSI M38-A2 for dermatophytes (Example 2)
T. tonsurans = type: cell-based; conditions: n = 5 strains
Method: (§1) MIC testing was performed according to the modification of the CLSI M38-A2 standard for dermatophytes developed at the Center (CLSI. Reference Method for Broth Dilution Antifungal Susceptibility Testing of Filamentous Fungi; Approved Standard-Second Edition. CLSI document M38-A2 [ISBN 1-56238-668-9]. CLSI, 940 West Valley Road, Suite 1400, Wayne, Pa. 19087-1898 USA, 2008; Ghannoum M A, et al. Intra- and Interlaboratory Study of a Method for Testing the Antifungal Susceptibilities of Dermatophytes. 2004 J Clin Microbiol 42:(7): 2977-2979). Compound 8 and fluconazole were tested in combination using a checkerboard microdilution method. The interaction between Compound 8 and fluconazole was determined by FIC Index, or Fractional Inhibitory Concentration Index, which assigns a numerical value to the interaction of the two antifungals.

T. mentagrophytes = type: cell-based; conditions: n = 5 strains
Method: as §1

T. rubrum = type: cell-based, Trichophyton rubrum; conditions: for MIC50: lowest concentration to inhibit 50% of the strains tested, n = 20

OC(Cn1cncn1)(Cn1cncn1)c1ccc(F)cc1F [Fluconazole, fluconazole] was tested, and the MIC50 (T. tonsurans; Trichophyton tonsurans) was 2 mg/L, the MIC90 (T. tonsurans; Trichophyton tonsurans) was 4 mg/L and the “MIC Range” value (T. tonsurans) was 1.0 to 4.0 mg/L. For the same molecule, the MIC50 (T. mentagrophytes; Trichophyton mentagrophytes) was 16 mg/L, the MIC90 (T. mentagrophytes; Trichophyton mentagrophytes) was 16 mg/L and the “MIC Range” value (T. mentagrophytes) was 2.0 to 16.0 mg/L. For the same molecule, the MIC50 (T. rubrum; Trichophyton rubrum, read-out: MIC50) was 1 mg/L (≈ 3.27 µM), the MIC90 (T. rubrum; Trichophyton rubrum, n = 20 strains) was 1 mg/L (≈ 3.27 µM) and the MIC50 (T. rubrum) was 1 mg/L (≈ 3.27 µM). For the same molecule, the “MIC Range” value (T. rubrum; n = 20 strains) was 0.25 to 4.0 mg/L.
